Reference: publication PMC6835155, “Lessons from LIMK1 enzymology and their impact on inhibitor design” (Biochemical Journal, 2019)
Structures can show the parent of a compound that is named as a salt. Where two headings read alike, the source gives them in different places.

Columns and labels:
[1] = target: T1, LIMK2KD (Homo sapiens, UniProt P53671); test: Differential (dynamic) scanning fluorimetry (DSF) assay, LIMK2KD; assay type: binding
T1 construct: The cDNA coding for LIMK2 residues 330 to 632 was PCR amplified; His6 (N, cleaved yes); made in house; host or cells: baculovirus; Sf9 for virus, TriEx insect cells for expression

[2] = target: T2, LIMK1KD (Homo sapiens, UniProt P53667); test: Differential (dynamic) scanning fluorimetry (DSF) assay, LIMK1KD; assay type: binding
T2 construct: His6 (N, cleaved yes); made in house; host or cells: baculovirus; Sf9 for virus, TriEx insect cells for expression

[3] = LIMK2KD, compound 10 µM, single shot, read-out: TM Shift LIMK2 (K)
[4] = 2 µM LIMK1KD, compound 10 µM, single shot, read-out: TM Shift LIMK1 (K)
[5] = LIMK2KD, compound 10 µM, single shot, 10 µM
[6] = 2 µM LIMK1KD, compound 10 µM, single shot
[7] = LIMK2KD, compound 10 µM, single shot
[8] = read-out: TM Shift LIMK2 (K), LIMK2KD, compound 10 µM, single shot

T2 sequence (P53667 330-637): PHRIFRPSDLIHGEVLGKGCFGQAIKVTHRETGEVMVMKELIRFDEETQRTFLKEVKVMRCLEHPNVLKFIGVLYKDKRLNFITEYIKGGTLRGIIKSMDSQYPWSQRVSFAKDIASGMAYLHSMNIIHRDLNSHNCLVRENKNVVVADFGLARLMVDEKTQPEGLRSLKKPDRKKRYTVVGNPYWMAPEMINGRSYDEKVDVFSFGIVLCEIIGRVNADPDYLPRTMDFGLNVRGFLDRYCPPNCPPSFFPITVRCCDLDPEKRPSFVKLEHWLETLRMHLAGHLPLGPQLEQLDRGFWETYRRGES
T1 sequence (P53671 330-632): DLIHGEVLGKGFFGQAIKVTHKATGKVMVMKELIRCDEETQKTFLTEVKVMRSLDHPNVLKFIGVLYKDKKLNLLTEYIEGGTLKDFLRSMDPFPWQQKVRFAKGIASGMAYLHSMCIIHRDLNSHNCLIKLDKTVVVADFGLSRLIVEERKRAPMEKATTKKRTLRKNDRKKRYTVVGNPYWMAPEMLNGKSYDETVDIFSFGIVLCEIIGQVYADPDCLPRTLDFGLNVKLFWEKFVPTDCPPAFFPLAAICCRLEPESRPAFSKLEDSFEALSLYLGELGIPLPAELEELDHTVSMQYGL

ΔTm at 10 µM [1, 3] | ΔTm at 10 µM [2, 4] | TM Shift LIMK1 (K) [2, 6] | Compound | further results
 |  | 0.4 K | NC1(Cc2ccc(Cl)cc2)CCN(c2ncnc3[nH]ccc23)CC1 [CCT128930] | TM Shift LIMK2 (K) [1, 7]: 1.0 K
 |  | 2.4 K | CN(C)c1ccc(-c2nc3ncc(Cl)c(N4CCN(CC(=O)Nc5nccs5)CC4)c3[nH]2)cc1 [CCT129202] | TM Shift LIMK2 (K) [1, 7]: 4.6 K
 |  | 3.4 K | Cc1cc(CN2CCN(c3c(Br)cnc4nc(-c5ccc(N6CCN(C)CC6)cc5)[nH]c34)CC2)no1 [CCT137690] | TM Shift LIMK2 (K) [1, 7]: 3.5 K
-0.1 °C | -0.2 °C |  | COc1cc2ncnc(Oc3cccc(NC(=O)Nc4cc(C(C)(C)C(F)(F)F)on4)c3)c2cc1OC [CEP-32496] | 
 |  | 1.0 K | CN1CCN(c2cccc(Nc3nc4c(-c5ccc(S(C)(=O)=O)cc5)cccn4n3)c2)CC1 [CEP-33779] | TM Shift LIMK2 (K) [1, 7]: 1.5 K
 |  | 1.6 K | C=CC(=O)Nc1cccc(Nc2nc(Nc3ccc(Oc4ccnc(C(=O)NC)c4)cc3)ncc2F)c1 [CNX-774] | TM Shift LIMK2 (K) [1, 7]: 1.2 K
1.6 °C | 0.8 °C |  | C#Cc1cccc(Nc2ncnc3cc(OC)c(OCCCCCCC(=O)NO)cc23)c1 [CUDC-101] | 
-0.1 °C | 0.3 °C |  | COc1ccc(-c2nc(N3CCOCC3)c3sc(CN(C)c4ncc(C(=O)NO)cn4)cc3n2)cn1 [CUDC-907] | 
1.6 °C | 3.7 °C |  | Cc1nc(N)sc1-c1ccnc(Nc2ccc(N3CCOCC3)cc2)n1 [CYC116] | 
 |  | 1.2 K | N#CCNC(=O)c1ccc(-c2ccnc(Nc3ccc(N4CCOCC4)cc3)n2)cc1 [CYT387] | TM Shift LIMK2 (K) [1, 5]: 0.8 K
-0.1 °C | -0.4 °C |  | CC(C)(C)NS(=O)(=O)c1cncc(-c2cc(F)c3nc(N)nn3c2)c1 [CZC24832] | 
6 °C | 4.6 °C |  | Cc1cc(Nc2cc(N3CCN(C)CC3)nc(/C=C/c3ccccc3)n2)n[nH]1 [ENMD-2076] | 
 |  | -0.5 K | CC(C)(C#N)c1ccc(N2C(=O)OCc3cnc4ccc(-c5cnc6ccccc6c5)cc4c32)cc1 [ETP-46464] | TM Shift LIMK2 (K) [1, 7]: -0.5 K
 |  | -0.4 K | CC(C)NC[C@@H](C(=O)N1CCN(c2ncnc3c2[C@H](C)C[C@H]3O)CC1)c1ccc(Cl)cc1 [GDC-0068] | TM Shift LIMK2 (K) [1, 5]: -0.4 K

Second part, the molecule before the results:

Compound | ΔTm at 10 µM [1, 3] | ΔTm at 10 µM [2, 4] | TM Shift LIMK1 (K) [2, 6] | further results
COc1cc(Nc2c(C#N)cnc3cc(OCCCN4CCN(C)CC4)c(OC)cc23)c(Cl)cc1Cl [Bosutinib (SKI-606), Bosutinib] | 1.3 °C | 0.1 °C |  | 
Cc1cc2c(F)c(Oc3ncnn4cc(OC[C@@H](C)O)c(C)c34)ccc2[nH]1 [Brivanib (BMS-540215), Brivanib] | 0.3 °C | 0.8 °C |  | 
Cc1cc2c(F)c(Oc3ncnn4cc(OC[C@@H](C)OC(=O)[C@H](C)N)c(C)c34)ccc2[nH]1 [Brivanib Alaninate (BMS-582664), Brivanib Alaninate] | 0 °C | 0.7 °C |  | 
Nc1cc(C(F)(F)F)c(-c2cc(N3CCOCC3)nc(N3CCOCC3)n2)cn1 [Buparlisib] |  |  | 0.6 K | TM Shift LIMK2 (K) [1, 5]: 0.0 K; TM Shift LIMK2 (K) ([1]; LIMK2KD, compound 10 µM, single shot, listed as BKM120 (NVP-BKM120, Buparlisib), 10 µM): 0.7 K; TM Shift LIMK1 (K) ([2]; 2 µM LIMK1KD, compound 10 µM, single shot, listed as BKM120 (NVP-BKM120, Buparlisib)): -1.9 K
O=C(/C=C/c1ccc(O)c(O)c1)c1ccc(O)cc1O [Butein] | 1.9 °C | -0.6 °C |  | 
O=C(NC(NC(=S)Nc1ccc(F)c([N+](=O)[O-])c1)C(Cl)(Cl)Cl)C(c1ccccc1)c1ccccc1 (centres unmarked) [CGK 733] |  |  | 0.7 K | TM Shift LIMK2 (K) [1, 7]: 4.2 K
CS(=O)(=O)N1CCc2c(-c3cnc(N)nc3)nc(N3CCOCC3)nc21 [CH5132799] | 0.1 °C | 1.3 °C |  | 
O=c1[nH]c2ccc(Cl)cc2c(N[C@@H]2CN3CCC2CC3)c1-c1nc2ccccc2[nH]1 [CHIR-124] |  |  | 2.2 K | TM Shift LIMK2 (K) [1, 7]: -1.7 K
Cc1c[nH]c(-c2cnc(NCCNc3ccc(C#N)cn3)nc2-c2ccc(Cl)cc2Cl)n1 [CHIR-99021 (CT99021) HCl] | -0.3 °C | 3.1 °C |  | 
C=CC(=O)Nc1cccc(Nc2nc(Nc3ccc(N4CCN(C(C)=O)CC4)cc3OC)ncc2C(F)(F)F)c1 [CO-1686 (AVL-301)] | -0.4 °C | 0.4 °C |  | 
COCCOc1ccc2c(c1)ncn2-c1ccc2cccc(N3CCC(N)CC3)c2n1 [CP-673451] | 1.9 °C | 0.9 °C |  | 
COCC(=O)NC/C=C/c1ccc2ncnc(Nc3ccc(Oc4ccc(C)nc4)c(C)c3)c2c1 [CP-724714] | -0.8 °C | 0.4 °C |  | 
COc1cc2nccc(Oc3ccc(NC(=O)C4(C(=O)Nc5ccc(F)cc5)CC4)cc3)c2cc1OC [Cabozantinib (XL184, BMS-907351), Cabozantinib] | 0.6 °C | 2.5 °C |  | 
C=CC(=O)Nc1cc2c(Nc3ccc(F)c(Cl)c3)ncnc2cc1OCCCN1CCOCC1 [Canertinib (CI-1033), Canertinib] | 0.5 °C | 0.9 °C |  | 
COc1cc2c(Oc3ccc4[nH]c(C)cc4c3F)ncnc2cc1OCCCN1CCCC1 [Cediranib (AZD2171), Cediranib] | 0.5 °C | -0.2 °C |  | 
Cc1cc(O)c2c(c1)C(=O)c1cccc(O)c1C2=O [Chrysophanic Acid] | 1.3 °C | 0.9 °C |  | 
CC1(COc2ccc3c(c2)ncn3-c2ccc3cccc(N4CCC(N)CC4)c3n2)COC1 [Crenolanib (CP-868596), Crenolanib] | 0.5 °C | 1 °C |  | 
C[C@@H](Oc1cc(-c2cnn(C3CCNCC3)c2)cnc1N)c1c(Cl)ccc(F)c1Cl [Crizotinib (PF-02341066), Crizotinib] | 1.4 °C | 3.9 °C |  | 

Compound | ΔTm at 10 µM [1, 3] | ΔTm at 10 µM [2, 4] | TM Shift LIMK1 (K) [2, 6] | further results
COc1cc2ncnc(Nc3ccc(F)c(Cl)c3)c2cc1NC(=O)/C=C/CN1CCCCC1 [Dacomitinib (PF299804, PF299), Dacomitinib] | 0.2 °C | 0.9 °C |  | 
Cn1c(=O)n(-c2ccc(C(C)(C)C#N)cc2)c2c3cc(-c4cnc5ccccc5c4)ccc3ncc21 [Dactolisib] |  |  | 0.3 K | TM Shift LIMK2 (K) [1, 5]: -0.3 K; TM Shift LIMK2 (K) ([1]; LIMK2KD, compound 10 µM, single shot, listed as BEZ235 (NVP-BEZ235, Dactolisib), 10 µM): 0.1 K; TM Shift LIMK1 (K) ([2]; 2 µM LIMK1KD, compound 10 µM, single shot, listed as BEZ235 (NVP-BEZ235, Dactolisib)): -0.1 K
CO[C@@H](C(=O)N1Cc2n[nH]c(NC(=O)c3ccc(N4CCN(C)CC4)cc3)c2C1)c1ccccc1 [Danusertib (PHA-739358), Danusertib] | 1 °C | 5 °C |  | 
Cc1nc(Nc2ncc(C(=O)Nc3c(C)cccc3Cl)s2)cc(N2CCN(CCO)CC2)n1 [Dasatinib] |  | 7 °C |  | ΔTm at 10 µM [1, 8]: 1.7 °C
CCC[C@H](NC(=O)/C(C#N)=C/c1cccc(Br)n1)c1ccccc1 [Degrasyn (WP1130), Degrasyn] |  |  | -1.0 K | TM Shift LIMK2 (K) [1, 7]: 0.7 K
CCc1cnn2c(NCc3ccc[n+]([O-])c3)cc(N3CCCC[C@H]3CCO)nc12 [Dinaciclib (SCH727965), Dinaciclib] | 0.6 °C | -0.3 °C |  | 
Cc1ccc(-n2nc(C(C)(C)C)cc2NC(=O)Nc2ccc(OCCN3CCOCC3)c3ccccc23)cc1 [Doramapimod] | 0.9 °C |  | -0.1 K | TM Shift LIMK2 (K) [1, 5]: 0.7 K; TM Shift LIMK1 (K) ([2]; 2 µM LIMK1KD, compound 10 µM, single shot, listed as BIRB 796 (Doramapimod)): 0.5 K
CN1CCN(c2ccc3nc(-c4c(N)c5c(F)cccc5[nH]c4=O)[nH]c3c2)CC1 [Dovitinib (TKI-258) Dilactic Acid, Dovitinib] | 3.8 °C | 2.2 °C |  | 
CCn1c2ccccc2c2cc(Nc3ccnc(NCCCN4CCOCC4)n3)ccc21 [EHop-016] |  |  | -0.1 K | TM Shift LIMK2 (K) [1, 7]: -0.7 K
Cn1cc(C2=C(c3cn(C4CCN(Cc5ccccn5)CC4)c4ccccc34)C(=O)NC2=O)c2ccccc21 [Enzastaurin (LY317615), Enzastaurin] | 1.6 °C | 1 °C |  | 
C#Cc1cccc(Nc2ncnc3cc(OCCOC)c(OCCOC)cc23)c1 [Erlotinib HCl (OSI-744), Erlotinib HCl] | 0.5 °C | 0.1 °C |  | 
CO[C@H]1C[C@@H]2CC[C@@H](C)[C@@](O)(O2)C(=O)C(=O)N2CCCC[C@H]2C(=O)O[C@H]([C@H](C)C[C@@H]2CC[C@@H](OCCO)[C@H](OC)C2)CC(=O)[C@H](C)/C=C(\C)[C@@H](O)[C@@H](OC)C(=O)[C@H](C)C[C@H](C)/C=C/C=C/C=C/1C [Everolimus (RAD001), Everolimus] | -0.9 °C | 0.1 °C |  | 
O=S(=O)(c1cccc2cnccc12)N1CCCNCC1 [Fasudil (HA-1077) HCl, Fasudil] | 0.9 °C | 0.8 °C |  | 
Cc1cnc(Nc2ccc(OCCN3CCCC3)cc2)nc1Nc1cccc(S(=O)(=O)NC(C)(C)C)c1 [Fedratinib] | 1.4 °C | 3.2 °C |  | 
CCCCCCCCc1ccc(CCC(N)(CO)CO)cc1 [Fingolimod (FTY720) HCl, Fingolimod] |  |  |  | ΔTm at 10 µM [1, 8]: 1.1 °C; ΔTm at 10 µM ([2]; read-out: TM Shift LIMK1 (K), 2 µM LIMK1KD, compound 10 µM, single shot): -0.7 °C
COc1cc2c(Oc3ccc(NC(=O)C4(C(=O)Nc5ccc(F)cc5)CC4)cc3F)ccnc2cc1OCCCN1CCOCC1 [Foretinib (GSK1363089), Foretinib] | -0.4 °C | 1.9 °C |  | 
COc1cc(Nc2ncc(F)c(Nc3ccc4c(n3)N(COP(=O)(O)O)C(=O)C(C)(C)O4)n2)cc(OC)c1OC [Fostamatinib (R788), Fostamatinib] | 0.5 °C | 1 °C |  | 
